The text below walks through data of patent US20240050576A1, “METHODS AND COMPOUNDS FOR THE TREATMENT OF GENETIC DISEASE” (Design Therapeutics, Inc., priority 2020, published 2024).

The test system of the experiment is human FXN. The experiment in a line: FXN mRNA expression by qRT-PCR in GM15850 cells after 48 hr compound treatment. The format is cell-based. The following applies: GM15850 cells, 48 hr incubation, hFXN normalized to hGAPDH, read-out: EC50 WT (nM, 48 hr). The protocol: Cell culture: Cells were cultured in RPMI1640 medium+15% FBS. Cells were maintained at a density between 2e5/mL and 1e6/mL. Cells were centrifuged, resuspended in fresh medium, counted and plated at 150,000 cells per well in 100 uL in a non-coated, flat bottom tissue culture plate.
Compound treatment: 10 mM stock solution of FA GeneTAC was diluted 1:10 in DMSO followed by a 1:100 dilution in growth medium. […] Compound was then diluted at a 1:3 ratio into growth medium containing 0.01% DMSO. 5-point, 3-fold dose response curve was generated. 11 μL of 10× compound was added to wells containing 100 μL cell suspension of GM15850. 11 μL growth medium containing 0.01% DMSO was added to all wells not treated with FA GeneTAC. Cells were allowed to incubate for 48 hrs prior to cell lysis using guanidine isothiocyanate solution.
RNA isolation: Total RNA was isolated and purified in 384-well column filter plates using chaotropic salt.
qRT-PCR: qRT-PCR reactions were assembled using AgPath-ID reagents (Thermo Fisher) using 6 uL mastermix and 4 μL RNA. qRT-PCR TaqMan primer probe sets against human FXN (Assay ID Hs01075496_m1) and human GAPDH (Assay ID Hs00266705_g1) were used to measure the intended targets. qRT-PCR was run on the ThermoFisher QuantStudio 6 PRO instrument using the manufacturer's recommended cycling conditions.
Data analysis: qPCR data was analyzed using Thermo Fisher Design and Analysis software. Data was exported to Excel and hFXN expression was normalized to hGAPDH expression.
(Real-time PCR tracks product formation cycle by cycle.)

Like-named read-outs stand apart in the source and are kept apart here. Bounds are passed on as bounds.

Broadly, the EC50 is the concentration needed to bring the measured effect to its halfway point.

Regarding `Cc1sc2c(c1C)C(c1ccc(Cl)cc1)=N[C@@H](CC(=O)Nc1ccc(OCCOCCOCCOCCOCCOCCC(=O)NCCCN(CCCNC(=O)CCNC(=O)c3nc(NC(=O)CCNC(=O)c4cc(NC(=O)c5nc(NC(=O)CCNC(=O)c6cc(NC(=O)c7nccn7C)cn6C)cn5C)cn4C)cn3C)CC(F)(F)F)cc1)c1nnc(C)n1-2` [Compound 38], the EC50 was less than 100 nM. Regarding `CC(=O)N1c2ccc(-c3ccc(C(=O)NCCOCCOCCOCCOCCOCCOCCOCCOCCNC(=O)c4nc(NC(=O)CCNC(=O)c5cc(NC(=O)c6nc(NC(=O)CCNC(=O)c7cc(NC(=O)c8nc(NC(=O)CCNC(=O)[C@H](CCCNC(=N)N)NC(=O)[C@@H](N)CCCNC(=N)N)cn8C)cn7C)cn6C)cn5C)cn4C)cc3)cc2[C@H](Nc2ccc(Cl)cc2)C[C@@H]1C` [Compound 90], the EC50 fell in the range of 100 to 500 nM. Consider `COc1ccc2c(c1)C(c1ccc(Cl)cc1)=N[C@@H](CC(=O)Nc1ccc(OCCOCCOCCOCCOCCOCCC(=O)NCCCN(C)CCCNC(=O)CCNC(=O)c3nc(NC(=O)CCNC(=O)c4cc(NC(=O)c5nc(NC(=O)CCNC(=O)c6cc(NC(=O)c7nccn7C)cn6C)cn5C)cn4C)cn3C)cc1)c1nnc(C)n1-2` [Compound 6], for which the EC50 (Homo sapiens) was 100 to 500 nM. The same measure, in the same setting: next, `Cc1sc2c(c1C)C(c1ccc(Cl)cc1)=N[C@@H](CC(=O)Nc1ccc(OCCOCCOCCOCCOCCOCCOCCOCCOCCNC(=O)CCNC(=O)c3nc(NC(=O)CCNC(=O)c4cc(NC(=O)c5nc(NC(=O)CCNC(=O)c6cc(NC(=O)c7nccn7C)cn6C)cn5C)cn4C)cn3C)cc1)c1nnc(C)n1-2` [Compound 13]: less than 100 nM. In the case of `Cc1sc2c(c1C)C(c1ccc(Cl)cc1)=N[C@@H](CC(=O)Nc1ccc(OCCOCCOCCOCCOCCOCCOCCOCCC(=O)NCCCN(C)CCCNC(=O)c3cc(NC(=O)c4nc(NC(=O)CCNC(=O)c5cc(NC(=O)c6nc(NC(=O)CCNC(=O)c7cc(NC(=O)c8nccn8C)cn7C)cn6C)cn5C)cn4C)cn3C)cc1)c1nnc(C)n1-2` [Compound 56], for the setting “Homo sapiens”, the concentration for a half-maximal effect (EC50) was in the range of 100 to 500 nM. Turning to `Cc1sc2c(c1C)C(c1ccc(Cl)cc1)=N[C@@H](CC(=O)Nc1ccc(OCCOCCOCCOCC(=O)N3CCN(CCOCCOCCOCCNC(=O)CCNC(=O)c4nc(NC(=O)CCNC(=O)c5cc(NC(=O)c6nc(NC(=O)CCNC(=O)c7cc(NC(=O)c8nccn8C)cn7C)cn6C)cn5C)cn4C)CC3)cc1)c1nnc(C)n1-2` [Compound 39], the EC50 (Homo sapiens) is less than 100 nM.

As for `CC(=O)N1c2ccc(-c3cnc(C(=O)NCCOCCOCCOCCOCCOCCOCCOCCOCCNC(=O)CCNC(=O)c4nc(NC(=O)CCNC(=O)c5cc(NC(=O)c6nc(NC(=O)CCNC(=O)c7cc(NC(=O)c8nccn8C)cn7C)cn6C)cn5C)cn4C)nc3)cc2N(Cc2ccccc2CO)C[C@@H]1C1CC1` [Compound 48, N-(5-[[2-([2-[(2-[[26-([5-[(2S)-1-acetyl-2-cyclopropyl-4-[[2-(hydroxymethyl)phenyl]methyl]-2,3-dihydroquinoxalin-6-yl]pyrimidin-2-yl]formamido)-3,6,9,12,15,18,21,24-octaoxahexacosan-1-yl]carbamoyl]ethyl)carbamoyl]-1-methylimidazol-4-yl]carbamoyl)ethyl]carbamoyl]-1-methylpyrrol-3-yl)-1-methyl-4-(3-[[1-methyl-4-(1-methylimidazole-2-amido)pyrrol-2-yl]formamido]propanamido)imidazole-2-carboxamide], the EC50 (Homo sapiens) is greater than 500 nM. In the case of `COc1ccc2c(c1)C(c1ccc(Cl)cc1)=N[C@@H](CC(=O)Nc1ccc(OCCOCCOCCNC(=O)[C@H](CCCNC(=N)N)NC(=O)[C@H](CCCNC(=N)N)NC(=O)CCOCCOCCOCCNC(=O)CCNC(=O)c3nc(NC(=O)CCNC(=O)c4cc(NC(=O)c5nc(NC(=O)CCNC(=O)c6cc(NC(=O)c7nccn7C)cn6C)cn5C)cn4C)cn3C)cc1)c1nnc(C)n1-2` [Compound 100], the EC50 (Homo sapiens) lay in the range of 100 to 500 nM. As for `CC(=O)N1c2ccc(-c3ccc(C(=O)NCCOCCOCCOCCOCCOCCOCCOCCOCCNC(=O)c4cc(NC(=O)c5nc(NC(=O)CCNC(=O)c6cc(NC(=O)c7nc(NC(=O)CCNC(=O)COCCOCCOCCN8CCN(CC9CCNCC9)CC8)cn7C)cn6C)cn5C)cn4C)cc3)cc2[C@H](Nc2ccc(Cl)cc2)C[C@@H]1C` [Compound 73], the EC50 (Homo sapiens) is greater than 500 nM. As to `CC(=O)N1c2ccc(-c3ccc(C(=O)NCCOCCOCCOCCOCCOCCOCCOCCOCCNC(=O)c4nc(NC(=O)CCNC(=O)c5cc(NC(=O)c6nc(NC(=O)CCNC(=O)c7cc(NC(=O)c8nc(NC(=O)CCNC(=O)COCCOCCOCCOCCOCCOCCOCCOCCOCCOCCOCCOCCOCCOCCOCCN)cn8C)cn7C)cn6C)cn5C)cn4C)cc3)cc2[C@H](Nc2ccc(Cl)cc2)C[C@@H]1C` [Compound 89], for the setting “Homo sapiens”, the EC50 was greater than 500 nM. In the case of `Cc1sc2c(c1C)C(c1ccc(Cl)cc1)=N[C@@H](CC(=O)Nc1ccc(OCCOCCOCCOCCOCCOCCC(=O)NCCCOCCCNC(=O)CCNC(=O)c3nc(NC(=O)CCNC(=O)c4cc(NC(=O)c5nc(NC(=O)CCNC(=O)c6cc(NC(=O)c7nccn7C)cn6C)cn5C)cn4C)cn3C)cc1)c1nnc(C)n1-2` [Compound 58], the EC50 (Homo sapiens) was less than 100 nM. Turning to `CCCNC(=O)CCNC(=O)c1nc(NC(=O)CCNC(=O)c2cc(NC(=O)c3nc(NC(=O)CCNC(=O)c4cc(NC(=O)c5nc(NC(=O)COCCOCCOCCOCCOCCOCCOCCOc6ccc(NC(=O)C[C@@H]7N=C(c8ccc(Cl)cc8)c8c(sc(C)c8C)-n8c(C)nnc87)cc6)cn5C)cn4C)cn3C)cn2C)cn1C` [Compound 49], the EC50 (Homo sapiens) is less than 100 nM. Still for that read-out and setting: next, `CCCNC(=O)CCNC(=O)c1nc(NC(=O)CCNC(=O)c2cc(NC(=O)c3nc(NC(=O)CCNC(=O)c4cc(NC(=O)c5nc(NC(=O)COCCOCCOCCOCCOCCOCCOCCOCCOc6ccc(NC(=O)C[C@@H]7N=C(c8ccc(Cl)cc8)c8c(sc(C)c8C)-n8c(C)nnc87)cc6)cn5C)cn4C)cn3C)cn2C)cn1C` [Compound 50]: less than 100 nM; `Cc1sc2c(c1C)C(c1ccc(Cl)cc1)=N[C@@H](CC(=O)Nc1cncc(OCCOCCOCCOCCOCCOCCOCCOCCOCCNC(=O)CCNC(=O)c3nc(NC(=O)CCNC(=O)c4cc(NC(=O)c5nc(NC(=O)CCNC(=O)c6cc(NC(=O)c7nccn7C)cn6C)cn5C)cn4C)cn3C)c1)c1nnc(C)n1-2` [Compound 103]: less than 100 nM. Same read-out and setting: with `CC(=O)N1c2ccc(-c3cnc(C(=O)NCCOCCOCCOCCOCCOCCC(=O)NCCCN(C)CCCNC(=O)CCNC(=O)c4nc(NC(=O)CCNC(=O)c5cc(NC(=O)c6nc(NC(=O)CCNC(=O)c7cc(NC(=O)c8nccn8C)cn7C)cn6C)cn5C)cn4C)nc3)cc2N(Cc2ccccc2CO)C[C@@H]1C1CC1` [Compound 30] the figure was greater than 500 nM; with `CC(=O)N1c2ccc(-c3ccc(C(=O)NCCOCCOCCOCCOCCOCCOCCOCCOCCNC(=O)c4nc(NC(=O)CCNC(=O)c5cc(NC(=O)c6nc(NC(=O)CCNC(=O)c7cc(NC(=O)c8nc(NC(=O)CCNC(=O)COCCOCCOCCNC(=N)N)cn8C)cn7C)cn6C)cn5C)cn4C)cc3)cc2[C@H](Nc2ccc(Cl)cc2)C[C@@H]1C` [Compound 87], 100 to 500 nM; with `COC[C@@H](C)n1c(C2CCN(C(=O)COCCOCCOCCOCCOCCC(=O)NCCCN(C)CCCNC(=O)CCNC(=O)c3nc(NC(=O)CCNC(=O)c4cc(NC(=O)c5nc(NC(=O)CCNC(=O)c6cc(NC(=O)c7nccn7C)cn6C)cn5C)cn4C)cn3C)CC2)nc2cnc3cc(-c4c(C)noc4C)c(OC)cc3c21` [Compound 20], 100 to 500 nM. In the case of `CC(=O)N1c2ccc(C3=CCN(C(=O)COCCOCCOCCOCCOCCC(=O)NCCCN(C)CCCNC(=O)CCNC(=O)c4nc(NC(=O)CCNC(=O)c5cc(NC(=O)c6nc(NC(=O)CCNC(=O)c7cc(NC(=O)c8nccn8C)cn7C)cn6C)cn5C)cn4C)CC3)cc2N(Cc2ccccc2CO)C[C@@H]1C1CC1` [Compound 29], the EC50 was in the range of 100 to 500 nM.

Regarding `CC(=O)N1c2ccc(-c3ccc(C(=O)NCCOCCOCCOCCOCCOCCOCCOCCOCCNC(=O)c4nc(NC(=O)CCNC(=O)c5cc(NC(=O)c6nc(NC(=O)CCNC(=O)c7cc(NC(=O)c8nc(NC(=O)CCNC(=O)COCCOCCOCCN9CCN(CC%10CCNCC%10)CC9)cn8C)cn7C)cn6C)cn5C)cn4C)cc3)cc2[C@H](Nc2ccc(Cl)cc2)C[C@@H]1C` [Compound 88], the EC50 (Homo sapiens) was greater than 500 nM. `CCCNC(=O)c1nc(NC(=O)CCNC(=O)c2cc(NC(=O)c3nc(NC(=O)CCNC(=O)c4cc(NC(=O)c5nc(NC(=O)CCNC(=O)COCCOCCOCCOCCOCCOCCOCCOCCOc6ccc(NC(=O)C[C@@H]7N=C(c8ccc(Cl)cc8)c8c(sc(C)c8C)-n8c(C)nnc87)cc6)cn5C)cn4C)cn3C)cn2C)cn1C` [Compound 52]: the EC50 (Homo sapiens) is less than 100 nM. Same read-out and setting: next, `COC[C@@H](C)n1c(C2CCN(CCOCCOCCOCCOCCOCCC(=O)NCCCN(C)CCCNC(=O)CCNC(=O)c3nc(NC(=O)CCNC(=O)c4cc(NC(=O)c5nc(NC(=O)CCNC(=O)c6cc(NC(=O)c7nccn7C)cn6C)cn5C)cn4C)cn3C)CC2)nc2cnc3cc(-c4c(C)noc4C)c(OC)cc3c21` [Compound 10]: 100 to 500 nM; `Cc1sc2c(c1C)C(c1ccc(Cl)cc1)=N[C@@H](CC(=O)Nc1ccc(OCCOCCOCCOCCOCCOCCOCCOCCNC(=O)CCNC(=O)c3nc(NC(=O)CCNC(=O)c4cc(NC(=O)c5nc(NC(=O)CCNC(=O)c6cc(NC(=O)c7nccn7C)cn6C)cn5C)cn4C)cn3C)cc1)c1nnc(C)n1-2` [Compound 23]: 100 to 500 nM.
